According to ChEMBL document CHEMBL3864184, “Optimization of Highly Kinase Selective Bis-anilino Pyrimidine PAK1 Inhibitors” (ACS Med Chem Lett, 2016):

Assay: Distribution coefficient, logD of the compound
Assay type: physicochemical
Conditions: octanol/water

SMILES | logD
Cc1ccc(CO)cc1N(C)c1nc(Nc2cc(N3CCOCC3)cc(S(C)(=O)=O)c2)ncc1F | 3.3
CCn1c(=O)c(-c2ccc(-c3cncs3)cc2Cl)cc2cnc(Nc3ccc(N4CCN(C)CC4)cc3)nc21 | > 4
CN(c1cccc(CO)c1)c1nc(Nc2cc(N3CCOCC3)cc(S(C)(=O)=O)c2)ncc1F | 3
Cc1cc(C)c(N(C)c2nc(Nc3cc(N4CCOCC4)cc(S(C)(=O)=O)c3)ncc2F)cc1CO | 3.8
CCN(c1cc(CO)ccc1C)c1nc(Nc2ccc(N3CCN(C)CC3)c(S(=O)(=O)CC)c2)ncc1F | 3.5
COCc1ccc(C)c(N(C)c2nc(Nc3cc(N4CCOCC4)cc(S(C)(=O)=O)c3)ncc2F)c1 | 3.7
CN(c1cc(CO)ccc1Cl)c1nc(Nc2cc(N3CCOCC3)cc(S(C)(=O)=O)c2)ncc1F | 3.7
Cc1cc(C)c(N(C)c2nc(Nc3ccc(N4CCN(C)CC4)cc3)ncc2F)cc1CO | 3
CCS(=O)(=O)c1cc(Nc2ncc(F)c(N(C)c3cc(CO)c(C)cc3C)n2)cc(N2CCOCC2)c1 | 3.8
